Common to all, as to format: in vivo
The subject of assay [1] is Alopecurus myosuroides (ALOMY). The experiment in a line: Pre-emergence biological efficacy (Example 13). Conditions: pre-emergence, 1,000 g/ha, after 13 days; for pest or weed control at 1000 g/ha: Alopecurus myosuroides, 312 h, read-out: Percentage damage ALOMY. The protocol: (§1) Seeds of Alopecurus myosuroides (ALOMY), Setaria faberi (SETFA), Echinochloa crus-galli (ECHCG), Solanum nigrum (SOLNI), Amaranthus retroflexus (AMARE) and Ipomea hederaceae (IPOHE) were sown in standard soil in pots. After cultivation for one day under controlled conditions in a glasshouse (at 24/16° C., day/night; 14 hours light; 65% humidity), the plants were sprayed with an aqueous spray solution derived from the formulation of the technical active ingredient in acetone/water (50:50) solution containing 0.5% Tween 20 (polyoxyethylene sorbitan monolaurate, CAS RN 9005-64-5) to give a final dose of 250 or 1000g/ha of test compound. The test plants were then grown under controlled conditions in the glasshouse (at 24/16° C., day/night; 14 hours light; 65% humidity) and watered twice daily. After 13 days the test was evaluated (100 =total damage to plant; 0 =no damage to plant).

In assay [2] the test system is Amaranthus retroflexus (AMARE). The experiment in a line: Pre-emergence biological efficacy (Example 13). The settings on record: pre-emergence, 1,000 g/ha, after 13 days; for pest or weed control at 1000 g/ha: Amaranthus retroflexus, 312 h, read-out: Percentage damage AMARE. The protocol:
as §1

Assay [3] relates to Echinochloa crus-galli (ECHCG). The experiment in a line: Pre-emergence biological efficacy (Example 13). Conditions: pre-emergence, 1,000 g/ha, after 13 days; for pest or weed control at 1000 g/ha: Echinochloa crus-galli, 312 h, read-out: Percentage damage ECHCG. The protocol: as §1
Assay [4] deals with Ipomea hederaceae (IPOHE). The experiment in a line: Pre-emergence biological efficacy (Example 13). The settings on record: pre-emergence, 1,000 g/ha, after 13 days; for pest or weed control at 1000 g/ha: Ipomoea hederacea, 312 h, read-out: Percentage damage IPOHE. The protocol: as §1
The test system of assay [5] is Setaria faberi (SETFA). In words: Pre-emergence biological efficacy (Example 13). Conditions: pre-emergence, 1,000 g/ha, after 13 days; for pest or weed control at 1000 g/ha: Setaria faberi, 312 h, read-out: Percentage damage SETFA. On the procedure:
as §1

In assay [6] the test system is Solanum nigrum (SOLNI). In words: Pre-emergence biological efficacy (Example 13). The settings on record: pre-emergence, 1,000 g/ha, after 13 days; for pest or weed control at 1000 g/ha: Solanum nigrum, 312 h, read-out: Percentage damage SOLNI. The protocol:
as §1

Assay [7] relates to Alopecurus myosuroides (ALOMY). The experiment in a line: Post-emergence biological efficacy (Example 14). The settings on record: post-emergence, 1,000 g/ha, after 13 days; for pest or weed control at 1000 g/ha: Alopecurus myosuroides, 312 h, read-out: Percentage damage ALOMY. The protocol:
as §1, with “for 8 days” for “for one day”, “or 1000 g/ha” for “or 1000g/ha”, “grown on” for “grown”, “in a” for “in the”, “evaluated (100=total” for “evaluated (100 =total”, “plant; 0=no” for “plant; 0 =no”

Assay [8] has as its system Amaranthus retroflexus (AMARE). In words: Post-emergence biological efficacy (Example 14). Conditions: post-emergence, 1,000 g/ha, after 13 days; for pest or weed control at 1000 g/ha: Amaranthus retroflexus, 312 h, read-out: Percentage damage AMARE. On the procedure: as §1, with “for 8 days” for “for one day”, “or 1000 g/ha” for “or 1000g/ha”, “grown on” for “grown”, “in a” for “in the”, “evaluated (100=total” for “evaluated (100 =total”, “plant; 0=no” for “plant; 0 =no”

In assay [9] the test system is Echinochloa crus-galli (ECHCG). The experiment in a line: Post-emergence biological efficacy (Example 14). The settings on record: post-emergence, 1,000 g/ha, after 13 days; for pest or weed control at 1000 g/ha: Echinochloa crus-galli, 312 h, read-out: Percentage damage ECHCG. The protocol:
as §1, with “for 8 days” for “for one day”, “or 1000 g/ha” for “or 1000g/ha”, “grown on” for “grown”, “in a” for “in the”, “evaluated (100=total” for “evaluated (100 =total”, “plant; 0=no” for “plant; 0 =no”

The subject of assay [10] is Ipomea hederaceae (IPOHE). In words: Post-emergence biological efficacy (Example 14). The settings on record: post-emergence, 1,000 g/ha, after 13 days; for pest or weed control at 1000 g/ha: Ipomoea hederacea, 312 h, read-out: Percentage damage IPOHE. On the procedure:
as §1, with “for 8 days” for “for one day”, “or 1000 g/ha” for “or 1000g/ha”, “grown on” for “grown”, “in a” for “in the”, “evaluated (100=total” for “evaluated (100 =total”, “plant; 0=no” for “plant; 0 =no”

Assay [11] relates to Setaria faberi (SETFA). The experiment in a line: Post-emergence biological efficacy (Example 14). The settings on record: post-emergence, 1,000 g/ha, after 13 days; for pest or weed control at 1000 g/ha: Setaria faberi, 312 h, read-out: Percentage damage SETFA. The protocol: as §1, with “for 8 days” for “for one day”, “or 1000 g/ha” for “or 1000g/ha”, “grown on” for “grown”, “in a” for “in the”, “evaluated (100=total” for “evaluated (100 =total”, “plant; 0=no” for “plant; 0 =no”

Assay [12] relates to Solanum nigrum (SOLNI). The experiment in a line: Post-emergence biological efficacy (Example 14). Conditions: post-emergence, 1,000 g/ha, after 13 days; for pest or weed control at 1000 g/ha: Solanum nigrum, 312 h, read-out: Percentage damage SOLNI. On the procedure:
as §1, with “for 8 days” for “for one day”, “or 1000 g/ha” for “or 1000g/ha”, “grown on” for “grown”, “in a” for “in the”, “evaluated (100=total” for “evaluated (100 =total”, “plant; 0=no” for “plant; 0 =no”

In the case of `C/C=C/c1c(N)nc(-c2ccc(Cl)c(N(C)C)c2F)nc1C(=O)OC` [Compound 12, (E)-4-Amino-2-(4-chloro-3-dimethylamino-2-fluorophenyl)-6-methoxy-carbonyl-5-(prop-1-enyl)-pyrimidine], the pest or weed control at 1000 g/ha in assay [1] amounted to 70%; in [2], 100%; in [3] it was 90%; in [4], 0%; in assay [5], 80%; in [6] it was 80%. The pest or weed control at 1000 g/ha came out at 80% in assay [7]; 100% in assay [8]; 80% in [9]; 40% in assay [10]; 80% in assay [11]; 80% in assay [12].
For the compound `C=Cc1c(NCc2ccco2)nc(-c2ccc(Cl)c(N(C)C)c2F)nc1C(=O)OC` [Compound 13, 2-(4-Chloro-3-dimethylamino-2-fluorophenyl)-5-ethenyl-4-(furan-2-ylmethylamino)-6-methoxycarbonyl-pyrimi-dine], the pest or weed control at 1000 g/ha in assay [1] was 70%; in [2], 90%; in assay [3], 90%; in assay [4] it was 20%; in [5], 60%; in assay [6], 90%. Moreover, the pest or weed control at 1000 g/ha in assay [7] is 70%; in assay [8], 100%; in assay [9] it was 80%; in assay [10] it was 40%; in assay [11], 80%; in [12] it was 100%.
Take `C=Cc1c(NCc2ccccc2F)nc(-c2ccc(Cl)c(OC)c2F)nc1C(=O)OC` [Compound 14, 2-(4-Chloro-2-fluoro-3-methoxyphenyl)-5-ethenyl-4-(2-fluorophenylmethylamino)-6-methoxycarbonyl-pyrimi-dine]: the pest or weed control at 1000 g/ha in assay [1] amounted to 0%; in [2], 20%; in [3], 0%; in assay [4], 50%; in assay [5], 0%; in [6], 60%. For the same compound, the pest or weed control at 1000 g/ha stood at 0% in assay [7]; 100% in assay [8]; 0% in assay [9]; 60% in [10]; 0% in assay [11]; 90% in assay [12].
For the compound `C=Cc1c(NCc2ccccc2[N+](=O)[O-])nc(-c2ccc(Cl)c(OC)c2F)nc1C(=O)OC` [Compound 15, 2-(4-Chloro-2-fluoro-3-methoxyphenyl)-5-ethenyl-6-methoxycarbonyl-4-(2-nitrophenylmethyl-amino)-pyrimidine], the pest or weed control at 1000 g/ha is 50% in assay [1]; 100% in assay [2]; 70% in assay [3]; 100% in assay [4]; 0% in [5]; 100% in [6]. Further, the pest or weed control at 1000 g/ha stood at 70% in assay [7]; 100% in assay [8]; 90% in assay [9]; 90% in assay [10]; 70% in [11]; 90% in [12].
In the case of `C=Cc1c(NCc2ccccc2[N+](=O)[O-])nc(-c2ccc(Cl)c(N(C)C)c2F)nc1C(=O)OC` [Compound 16, 2-(4-Chloro-3-dimethylamino-2-fluorophenyl)-5-ethenyl-6-methoxycarbonyl-4-(2-nitrophenylmethyl-amino)-pyrimidine], the pest or weed control at 1000 g/ha in [1] came out at 60%; in assay [2], 50%; in [3] it was 70%; in [4] it was 0%; in [5], 70%; in assay [6], 30%. Besides, the pest or weed control at 1000 g/ha in [7] is 70%; in assay [8], 100%; in assay [9], 70%; in assay [10], 60%; in [11], 90%; in assay [12], 80%.
Turning to `C=Cc1c(NC2CCC2)nc(-c2ccc(Cl)c(OC)c2F)nc1C(=O)OC` [Compound 24, 2-(4-Chloro-2-fluoro-3-methoxyphenyl)-4-cyclobutylamino-5-ethenyl-6-methoxycarbonyl pyrimidine], the pest or weed control at 1000 g/ha stood at 10% in [1]; 100% in [2]; 50% in [3]; 80% in [4]; 0% in assay [5]; 80% in assay [6]. The pest or weed control at 1000 g/ha in assay [7] is 10%; in assay [8], 100%; in assay [9], 40%; in assay [10] it was 70%; in assay [11], 10%; in assay [12] it was 90%.
On to `C=Cc1c(NCc2ccco2)nc(-c2ccc(Cl)c(OC)c2F)nc1C(=O)O` [Compound 35, 2-(4-Chloro-2-fluoro-3-methoxyphenyl)-5-ethenyl-4-(furan-2-ylmethylamino)-pyrimidine-6-carboxylic acid], for which the pest or weed control at 1000 g/ha in assay [1] was 70%; in assay [2], 100%; in assay [3] it was 90%; in assay [4], 100%; in assay [5], 90%; in assay [6], 100%. The pest or weed control at 1000 g/ha was determined as 70% in [7]; 100% in assay [8]; 80% in assay [9]; 70% in assay [10]; 80% in assay [11]; 90% in assay [12].
Consider `C=Cc1c(N)nc(-c2ccc(Cl)c(N(C)C)c2F)nc1C(=O)OCCCCCCCC` [Compound 41, 4-Amino-2-(4-chloro-3-dimethylamino-2-fluorophenyl)-5-ethenyl-6- ^noctyloxycarbonyl-pyrimidine], for which the “Percentage damage ALOMY” value in assay [1] and in [7] was 70% each time. For the same compound, the “Percentage damage AMARE” value in assay [2] and in assay [8] was 100% throughout. Also, the “Percentage damage ECHCG” value came out at 100% in assay [3] and 80% in [9]. For the same compound, the “Percentage damage IPOHE” value in assay [4] is given as 0%; in assay [10], 80%. Besides, the “Percentage damage SETFA” value in assay [5] amounted to 90%; in assay [11], 60%. The entries for the “Percentage damage SOLNI” value in [6] and in assay [12] were 80% and 90%, respectively.
